According to patent US20210198277A1, “AMINE-SUBSTITUTED ARYL OR HETEROARYL COMPOUNDS” (Epizyme, Inc., priority 2016, published 2021):

biological target: T1, EHMT1 (Homo sapiens, UniProt Q9H9B1); test: EHMT1 enzyme assay on peptide substrate (EHMT1 PEP); assay type: biochemical; conditions: Table III; read-out: EHMT1 PEP (IC50 μM)
T1 sequence (Q9H9B1 1-1298): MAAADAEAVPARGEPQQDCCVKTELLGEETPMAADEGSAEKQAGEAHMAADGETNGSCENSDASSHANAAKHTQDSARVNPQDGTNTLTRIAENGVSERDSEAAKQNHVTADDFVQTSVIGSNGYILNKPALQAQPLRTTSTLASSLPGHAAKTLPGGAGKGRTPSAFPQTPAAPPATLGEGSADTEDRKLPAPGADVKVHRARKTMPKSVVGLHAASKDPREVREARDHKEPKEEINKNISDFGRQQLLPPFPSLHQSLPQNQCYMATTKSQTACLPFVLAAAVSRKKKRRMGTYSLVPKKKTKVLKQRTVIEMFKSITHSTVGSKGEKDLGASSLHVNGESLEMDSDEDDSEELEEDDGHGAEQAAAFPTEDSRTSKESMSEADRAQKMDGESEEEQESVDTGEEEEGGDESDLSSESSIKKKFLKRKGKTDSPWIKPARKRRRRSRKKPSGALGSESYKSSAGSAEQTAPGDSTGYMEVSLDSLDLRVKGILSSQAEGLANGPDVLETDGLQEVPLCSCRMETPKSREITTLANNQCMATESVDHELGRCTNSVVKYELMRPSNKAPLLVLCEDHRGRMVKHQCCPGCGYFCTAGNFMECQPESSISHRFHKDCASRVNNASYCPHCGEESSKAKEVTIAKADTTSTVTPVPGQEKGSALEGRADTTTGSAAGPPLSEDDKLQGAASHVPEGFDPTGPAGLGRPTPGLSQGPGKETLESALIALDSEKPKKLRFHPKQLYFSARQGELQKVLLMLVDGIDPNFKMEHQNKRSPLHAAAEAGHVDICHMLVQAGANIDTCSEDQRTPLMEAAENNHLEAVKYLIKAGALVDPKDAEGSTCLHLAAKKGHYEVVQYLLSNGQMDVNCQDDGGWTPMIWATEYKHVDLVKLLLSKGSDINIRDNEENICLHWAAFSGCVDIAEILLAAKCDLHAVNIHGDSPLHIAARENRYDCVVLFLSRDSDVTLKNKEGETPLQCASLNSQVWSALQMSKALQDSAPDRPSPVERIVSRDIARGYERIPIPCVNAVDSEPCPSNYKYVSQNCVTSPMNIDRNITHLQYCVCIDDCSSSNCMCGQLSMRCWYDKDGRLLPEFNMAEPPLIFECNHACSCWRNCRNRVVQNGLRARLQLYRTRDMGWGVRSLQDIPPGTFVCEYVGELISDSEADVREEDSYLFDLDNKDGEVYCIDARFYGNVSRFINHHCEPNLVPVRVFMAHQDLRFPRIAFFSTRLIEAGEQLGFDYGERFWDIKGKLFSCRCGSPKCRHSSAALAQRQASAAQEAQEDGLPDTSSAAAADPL

| Structure (SMILES) | IC50 [µM] |
| --- | --- |
| CNc1cc(Nc2cccc(COCCN3CCCC3)n2)ccn1 [Compound 268, N^2-methyl-N^4-(6-((2-(pyrrolidin-1-yl)ethoxy)methyl)pyridin-2-yl)pyridine-2,4-diamine] | > 10 |
| CNc1ccnc(Nc2ccc(OC)c(OCCCN3CCC(C(F)(F)F)C3)c2)n1 (centres unmarked) [Compound 285, N^2-(4-methoxy-3-(3-(3-(trifluoromethyl)pyrrolidin-1-yl)propoxy)phenyl)-N^4-methylpyrimidine-2,4-diamine] | > 10 |
| CNc1ccnc(Nc2cccc(COCCN3CCCC3)n2)c1 [Compound 267, N^4-methyl-N^2-(6-((2-(pyrrolidin-1-yl)ethoxy)methyl)pyridin-2-yl)pyridine-2,4-diamine] | > 10 |
| CNc1cc(C)nc(Nc2ccc(OC)c(O[C@H]3C[C@@H](N(C)C)C3)c2)n1 (single isomer, unassigned) [Compound 317, N^2-(3-((1s,3s)-3-(dimethylamino)cyclobutoxy)-4-methoxyphenyl)-N^4,6-dimethylpyrimidine-2,4-diamine] | > 10 |
| CNc1ccnc(Nc2cccc(OCC(F)(F)CN3CCCC3)c2)n1 [Compound 277, N^2-(3-(2,2-difluoro-3-(pyrrolidin-1-yl)propoxy)phenyl)-N^4-methylpyrimidine-2,4-diamine] | > 10 |
| CNc1cc(Nc2ccc(OC)c(OCCCN3CCCC3)c2)cc(C(F)(F)F)n1 [Compound 273] | > 10 |
| CNc1cc(C)nc(Nc2ccc(OC)c(O[C@H]3C[C@@H](CN(C)C)C3)c2)n1 [Compound 318, N^2-(3-((1s,3s)-3-((dimethylamino)methyl)cyclobutoxy)-4-methoxyphenyl)-N^4,6-dimethylpyrimidine-2,4-diamine] | > 10 |
| CNc1ccnc(Nc2ccc(OC)c(OCCCN3CCC(S(C)(=O)=O)C3)c2)n1 (centres unmarked) [Compound 282] | > 10 |
| CNc1ccnc(Nc2ccc(OC)c(OCc3cc(C4CC4)on3)c2)n1 [Compound 426, N^2-(3-((5-cyclopropylisoxazol-3-yl)methoxy)-4-methoxyphenyl)-N^4-methylpyrimidine-2,4-diamine] | > 10 |
| CNc1ccnc(Nc2cccc(C(C)OCCN3CCCC3)c2)n1 (centres unmarked) [Compound 279, N^4-methyl-N^2-(3-(1-(2-(pyrrolidin-1-yl)ethoxy)ethyl)phenyl) pyrimidine-2,4-diamine] | > 10 |
| CCNC(=O)c1cc(Nc2nccc(NC)n2)ccn1 [Compound 291, N-ethyl-4-((4-(methylamino)pyrimidin-2-yl)amino)picolinamide] | > 10 |
| CNc1cc(C)nc(Nc2ccc(OC)c(OCCOC)c2)n1 [Compound 311, N^2-(4-methoxy-3-(2-methoxyethoxy)phenyl)-N^4,6-dimethylpyrimidine-2,4-diamine] | > 10 |
| CNc1cc(C)nc(Nc2ccc(OC)c(OC3CCN(CC4CC4)CC3)c2)n1 [Compound 443] | > 10 |
| CNc1cc(C)nc(Nc2cc(OCCCN3CCCC3)c(OC)cc2F)n1 [Compound 302, N^2-(2-fluoro-4-methoxy-5-(3-(pyrrolidin-1-yl)propoxy)phenyl)-N^4,6-dimethylpyrimidine-2,4-diamine] | 1 to 10 |
| CNc1ccnc(Nc2ccc(OC)c(OC[C@@H]3CN(C)C[C@H]3C)c2)n1 (single isomer, unassigned) [Compound 438] | > 10 |

More lines, now with the values ahead:

| IC50 [µM] | Structure (SMILES) |
| --- | --- |
| 1 to 10 | CNc1cc(C)nc(Nc2ccc(OC)c(OCC3CCN(C)CC3)c2)n1 [Compound 435, N^2-(4-methoxy-3-((1-methylpiperidin-4-yl)methoxy)phenyl)-N^4,6-dimethylpyrimidine-2,4-diamine] |
| 0.1 to 1 | COc1cnc(Nc2nc(C)cc3[nH]ccc23)cc1OCCCN1CCCC1 [Compound 310] |
| 0.1 to 1 | CNc1ccnc(Nc2ccc(OC)c(OCCC3CCCN3C)c2)n1 (centres unmarked) [Compound 288, N^2-(4-methoxy-3-(2-(1-methylpyrrolidin-2-yl)ethoxy)phenyl)-N^4-methylpyrimidine-2,4-diamine] |
| 1 to 10 | CNc1ccnc(Nc2ccc(OC)c(OCc3noc(C4CC4)n3)c2)n1 [Compound 433, N^2-(3-((5-cyclopropyl-1,2,4-oxadiazol-3-yl)methoxy)-4-methoxyphenyl)-N^4-methylpyrimidine-2,4-diamine] |
| < 0.1 | CNc1ccnc(Nc2ccc(OC)c(OCCCN3CC4CC4C3)c2)n1 (centres unmarked) [Compound 298, N^2-(3-(3-(3-azabicyclo[3.1.0]hexan-3-yl)propoxy)-4-methoxyphenyl)-N^4-methylpyrimidine-2,4-diamine] |
| < 0.1 | CNc1cc(C)nc(Nc2ccc(OC)c(OCC3CCN(C4CCC4)C3)c2)n1 (centres unmarked) [Compound 446, N^2-(3-((1-cyclobutylpyrrolidin-3-yl)methoxy)-4-methoxyphenyl)-N^4,6-dimethylpyrimidine-2,4-diamine] |
| 0.1 to 1 | CCc1nc(Nc2ccc(OC)c(OCCCN3CCCC3)c2)nc(NC)c1F [Compound 319, 6-ethyl-5-fluoro-N^2-(4-methoxy-3-(3-(pyrrolidin-1-yl)propoxy)phenyl)-N^4-methylpyrimidine-2,4-diamine] |
| < 0.1 | CNc1cc(C)nc(Nc2ccc(OC)c(OCC3CNC3)c2)n1 [Compound 437, N^2-(3-(azetidin-3-ylmethoxy)-4-methoxyphenyl)-N^4,6-dimethylpyrimidine-2,4-diamine] |
| 1 to 10 | CNc1ccnc(Nc2ccc(OC)c(OCCCN(C)CC3CC3)c2)n1 [Compound 424, N^2-(3-(3-((cyclopropylmethyl)(methyl)amino)propoxy)-4-methoxyphenyl)-N^4-methylpyrimidine-2,4-diamine] |
| 0.1 to 1 | CNc1ccnc(Nc2ccc(OC)c(OCCCN3CCCC3C)c2)n1 (centres unmarked) [Compound 290, N^2-(4-methoxy-3-(3-(2-methylpyrrolidin-1-yl)propoxy)phenyl)-N^4-methylpyrimidine-2,4-diamine] |
| < 0.1 | CNc1ccnc(Nc2ccc(OC)c(OCC3CCCN3C)c2)n1 (centres unmarked) [Compound 289, N^2-(4-methoxy-3-((1-methylpyrrolidin-2-yl)methoxy)phenyl)-N^4-methylpyrimidine-2,4-diamine] |
| 0.1 to 1 | CNc1cc(C)nc(Nc2ccc(OC)c(OC[C@H]3C[C@@H](N(C)C)C3)c2)n1 [Compound 316] |
| 1 to 10 | COc1cnc(Nc2cnc3ccccn23)cc1OCCCN1CCCC1 [Compound 321, N-(5-methoxy-4-(3-(pyrrolidin-1-yl)propoxy)pyridin-2-yl)imidazo[1,2-a]pyridin-3-amine] |
| < 0.1 | COc1ccc(Nc2nc(C)cc(NCC3CCOCC3)n2)cc1OCC1CCN(C)C1 (centres unmarked) [Compound 451, N^2-(4-methoxy-3-((1-methylpyrrolidin-3-yl)methoxy)phenyl)-6-methyl-N^4-((tetrahydro-2H-pyran-4-yl)methyl)pyrimidine-2,4-diamine] |
| 0.1 to 1 | CNc1ccnc(Nc2ccc(OC)c(OC[C@@H](O)CN3CCCC3)c2)n1 [Compound 300, (S)-1-(2-methoxy-5-((4-(methylamino)pyrimidin-2-yl)amino)phenoxy)-3-(pyrrolidin-1-yl)propan-2-ol] |
| < 0.1 | COc1cnc(Nc2nccc3[nH]ccc23)cc1OCCCN1CCCC1 [Compound 304] |
| 0.1 to 1 | CNc1cc(C)nc(Nc2ccc(C3CC3)c(OCCCN3CCCC3)c2)n1 [Compound 313, N^2-(4-cyclopropyl-3-(3-(pyrrolidin-1-yl)propoxy)phenyl)-N^4,6-dimethylpyrimidine-2,4-diamine] |
